Source: patent US20240383869A1, “ARYLACETYL INHIBITORS OF TG2 AND USES THEREOF” (UNIVERSITY OF OTTAWA, priority 2021, published 2024)

Assays:
TG3a = target: T1, TG3a (Homo sapiens, UniProt Q08188); assay: Fluorescence isopeptidase activity assay (A101 FRET-quenched probe), isozyme selectivity; format: biochemical; details: normalized [I]/α
T1 construct: purchased Zedira
T1 sequence (Q08188 2-467 limits assumed): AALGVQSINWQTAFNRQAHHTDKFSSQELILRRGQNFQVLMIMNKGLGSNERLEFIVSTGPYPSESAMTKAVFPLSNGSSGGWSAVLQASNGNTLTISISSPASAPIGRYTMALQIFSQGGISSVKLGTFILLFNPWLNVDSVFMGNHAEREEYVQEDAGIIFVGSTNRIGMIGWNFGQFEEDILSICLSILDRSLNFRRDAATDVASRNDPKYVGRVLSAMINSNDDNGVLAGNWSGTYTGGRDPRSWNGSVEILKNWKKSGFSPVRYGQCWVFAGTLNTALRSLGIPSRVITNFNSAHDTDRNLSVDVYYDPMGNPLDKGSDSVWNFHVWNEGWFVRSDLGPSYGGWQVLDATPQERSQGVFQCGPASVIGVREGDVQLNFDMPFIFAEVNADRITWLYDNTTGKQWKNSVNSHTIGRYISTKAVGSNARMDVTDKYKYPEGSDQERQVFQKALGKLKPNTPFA
T1 sequence (Q08188 468-693 partner limits assumed): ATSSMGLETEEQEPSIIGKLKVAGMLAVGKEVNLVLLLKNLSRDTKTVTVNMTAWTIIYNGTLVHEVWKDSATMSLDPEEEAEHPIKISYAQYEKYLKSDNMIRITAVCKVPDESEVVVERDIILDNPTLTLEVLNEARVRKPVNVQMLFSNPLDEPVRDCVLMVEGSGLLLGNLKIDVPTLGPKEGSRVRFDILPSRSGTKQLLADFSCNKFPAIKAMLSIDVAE
Method: Fluorescence isopeptidase activity assay. The isopeptidase activity of pre-activated TG3a and FXIIIa (purchased from Zedira) was measured via a fluorescence-based assay as described (Kirily, R. et al., “Isopeptidase activity of human transglutaminase 2: disconnection from transamidation and characterization by kinetic parameters.” Amino Acids 2016, 48 (1), 31-40) using the commercially available peptidic FRET quenched probe A101. Briefly, the final concentration in the reaction mixture contained 50 mM Tris (pH 7.0), 10 mM CaCl2, 100 mM NaCl, 2.8 mM TCEP, 50 μM A101 and 14 mM H-Gly-OMe. The reaction was monitored at 25° C. using a BioTek Synergy 4 plate reader (Ex/Em: 318/413 nm). Enzymatic inhibition assays were run under Kitz and Wilson conditions (Kitz, R. and Wilson, I. B., “Esters of methanesulfonic acid as irreversible inhibitors of acetylcholinesterase.” J. Biol. Chem. 1962, 237, 3245-49), which were established for TG3a and FXIIIa at a substrate (A101) concentration of 50 μM using enzyme concentrations of 0.17 μM and 0.11 μM for TG3a and FXIIIa, respectively.

hTG6 = target: T2, hTG6 (Homo sapiens, UniProt O95932); assay: Colorimetric transamidase activity assay, isozyme selectivity; format: biochemical; details: normalized [I]/α
T2 sequence (O95932 1-706): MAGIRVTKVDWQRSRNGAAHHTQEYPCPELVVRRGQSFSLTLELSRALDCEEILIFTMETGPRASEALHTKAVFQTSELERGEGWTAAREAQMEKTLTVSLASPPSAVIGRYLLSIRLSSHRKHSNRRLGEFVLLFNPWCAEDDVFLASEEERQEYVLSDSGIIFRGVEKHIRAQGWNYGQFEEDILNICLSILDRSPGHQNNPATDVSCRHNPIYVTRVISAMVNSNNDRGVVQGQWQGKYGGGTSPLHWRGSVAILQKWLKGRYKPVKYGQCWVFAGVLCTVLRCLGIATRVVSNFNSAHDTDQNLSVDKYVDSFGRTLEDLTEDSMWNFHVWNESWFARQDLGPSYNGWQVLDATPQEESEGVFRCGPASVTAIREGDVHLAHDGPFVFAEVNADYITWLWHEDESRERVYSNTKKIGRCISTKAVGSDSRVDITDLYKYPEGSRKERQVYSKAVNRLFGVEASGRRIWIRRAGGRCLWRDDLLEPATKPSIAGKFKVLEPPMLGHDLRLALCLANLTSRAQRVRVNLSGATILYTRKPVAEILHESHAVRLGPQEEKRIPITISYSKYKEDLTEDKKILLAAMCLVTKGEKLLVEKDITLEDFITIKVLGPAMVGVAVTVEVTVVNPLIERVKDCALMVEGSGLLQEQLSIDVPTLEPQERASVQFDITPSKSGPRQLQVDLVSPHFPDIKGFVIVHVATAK
Method: Colorimetric transamidase activity assay. The activities of hTG1, hTG2 and hTG6 were measured via a colorimetric assay using the chromogenic substrate Cbz-Glu(γ-p-nitrophenyl ester)Gly (AL5), as described (Leblanc, A. et al., “Kinetic studies of guinea pig liver transglutaminase reveal a general-base-catalyzed deacylation mechanism.” Biochemistry 2001, 40 (28), 8335-8342). Assays were conducted at 25° C. in 50 mM MOPS buffer (pH 6.95) containing 7.5 mM CaCl2. […] Stock solutions of the inhibitors were made in water ranging in concentration from 100-500 μM. The reaction was initiated with the addition of enzyme, 0.10 μM hTG1, 0.25 μM hTG2 (4.6 mU/mL) or 0.32 μM hTG6. Formation of hydrolysis product, p-nitrophenolate (pNP), was monitored at 405 nm in a polystyrene 96-well microplate using a BioTek Synergy 4 plate reader. The observed first-order rate constants of inactivation (kobs) were determined via non-linear regression fit to a mono-exponential model (Eqn 1) of absorbance versus time curves. These rate constants (kobs) were in turn fit to a saturation kinetics model (Eqn 2), by non-linear regression, providing the kinetic parameters kinact and KI, as previously described by Stone and Hofsteenge (Stone, S. R. and Hofsteenge, J., “Specificity of activated human protein C.” Biochem. J. 1985, 230 (2), 497-502). […] Experiments were completed in triplicate at minimum.

Structure (SMILES): C=CC(=O)NCCCC[C@H](NC(=O)OCc1ccccc1)C(=O)N1CCN(C(=O)c2cccc3ccccc23)CC1 [AA9, reference compound]
- inhibition of TG3a (TG3a): none of these inhibitors showed any detectable inhibition
- inhibition of TG6 (hTG6): none of these inhibitors showed any detectable inhibition

Structure (SMILES): C=CC(=O)NCCCC[C@H](NC(=O)Cc1ccccc1F)C(=O)N1CCN(C(=O)c2cccc3ccccc23)CC1 [Inhibitor 72, (S)-N-(6-(4-(1-naphthoyl)piperazin-1-yl)-5-(2-(2-fluorophenyl)acetamido)-6-oxohexyl)acrylamide]
- inhibition of TG3a (TG3a): none of these inhibitors showed any detectable inhibition
- inhibition of TG6 (hTG6): none of these inhibitors showed any detectable inhibition

Structure (SMILES): C=CC(=O)NCCCC[C@H](NC(=O)Cc1ccccc1C)C(=O)N1CCN(C(=O)c2cccc3ccccc23)CC1 [Inhibitor 74, (S)-N-(6-(4-(1-naphthoyl)piperazin-1-yl)-5-(2-(2-methylphenyl)acetamido)-6-oxohexyl)acrylamide]
- inhibition of TG3a (TG3a): none of these inhibitors showed any detectable inhibition
- inhibition of TG6 (hTG6): none of these inhibitors showed any detectable inhibition
